Measured values taken from patent publication US7612107B2, “Treatment and inhibition of disease conditions using flexible heteroarotinoids” (The Board of Regents of the University of Oklahoma, priority 2005, dated 2009).

Assays:
[1] = test system: ovarian cancer cells; assay: Microarray analysis of gene expression in SHetA2-treated ovarian cancer cells; format: cell-based, Homo sapiens
Method: Microarray analysis was conducted to determine specific disease causing genes which were expressed at higher (>1 fold) or lower (<1 fold) levels than normal in ovarian cancer cells treated with SHetA2 (see Table 6).

[2] = test system: B16 mouse melanoma; assay: B16 melanoma syngeneic tumor model; format: in vivo
Method: (§1) FIG. 12. Various Xenograft tumors stained with CD34 antibodies (brown) to identify endothelium. The B16 mouse melanoma cell line was established as a syngeneic tumor in an immunocompetent mouse model and the human Caki renal cancer and A2780 ovarian xenograft tumors in immunocompromised mice. The treated mice were gavaged with 60 mg/kg/day SHetA2 and the untreated were gavaged with solvent only. The tumors were excised and sections were stained with the anti-CD34 antibody to detect endothelial cells (brown stain).
(§2) Survival was the primary endpoint of those studies. […] Tumor growth was the primary endpoint of the renal cancer study.

[3] = test system: A2780 ovarian xenograft tumors; assay: A2780 ovarian xenograft tumor model; format: in vivo, mouse; conditions: ovarian cancer model
Method: as §1, §2

[4] = test system: Caki renal cancer xenografts; assay: Caki renal cancer xenograft tumor model; format: in vivo, mouse
Method: as §1
FIG. 20. Mice harboring Caki renal cancer xenografts were treated with 60 mg/kg/day SHetA2 or PEG400 vehicle for 15 days. After another 15 days of growth, the tumors were removed, fixed, embedded and sections. Sections were stained with PAS to identify glycoproteins and lysosomes. The untreated tumor is on the left and the treated tumor is on the right.
as §2

[5] = test system: Thrombospondin 4 (TSP4); assay: Real time rt-PCR and Western blot validation, thrombospondin 4; format: cell-based; conditions: OVCAR-3 1 μM (rt-PCR); A2780 10 μM (Western)
[6] = test system: SW962 vulvar carcinoma cultures; assay: Annexin-V-Fluos apoptosis assay; format: cell-based; conditions: cancer cell lines
Method: SW962 vulvar carcinoma cultures were treated with 10 μM of the indicated retinoid or the same volume of solvent. At the specified times, the cultures were labeled with Annexin-V-Fluos and propidium iodide (PI), and the number of apoptotic cells was quantified using dual-laser flow cytometric analysis.
The TUNEL assay was used to evaluate apoptosis in fixed, paraffin embedded, cut sections of the treated and control cultures (FIG. 17). […] These two cellular outcomes appeared to be mutually exclusive.

For `CC1(C)CC(C)(C)c2cc(NC(=S)Nc3ccc([N+](=O)[O-])cc3)ccc2S1` [SHetA2], the “Fold: Retinitis pigmentosa GTPase regulator (RPGR)” value ([1]; Genbank NM_000328.1, Eye Diseases) was 0.47 Fold, the “Fold: UDP-galactose-4-epimerase in epimerase-deficiency galactosemia” value ([1]; Genbank NM_000403, Storage and Metabolism Deficiencies) was 0.66 Fold and the “Fold: Sulfite oxidase (SUOX), nuclear gene encoding mitochondrial protein” value ([1]; Genbank NM_000456.1) was 2.11 Fold. The “Fold: Galactosamine (N-acetyl)-6-sulfate sulfatase in Morquio syndrome, mucopolysaccharidosis type IVA” value ([1]; Genbank NM_000512, Storage and Metabolism Deficiencies) was 0.52 Fold, the “Fold: Regulatory factor X-associated protein (RFXAP)in bare lymphocyte syndrome” value ([1]; Genbank NM_000538.1, Autoimmune Diseases) was 0.41 Fold and the “Fold: Endothelial cell growth factor 1 (platelet-derived)/Thymidine phosphorylase” value ([1]; Genbank NM_001953) was 0.42 Fold. For the same compound, the “Fold: Figroblast growth factor 2 (basic)(FGF2)” value ([1]; Genbank NM_002006.1) was 0.35 Fold, the “Fold: Promyelocytic leukemia (PML)” value ([1]; Genbank NM_002675.1, Cancer) was 2.76 Fold and the “Fold: Transglutaminase 4 (prostate)” value ([1]; Genbank NM_003241, Cancer) was 0.24 Fold. For the same compound, the “Fold: Thrombospondin 4” value ([1]; Genbank NM_003248) was 0.58 Fold, the “Fold: Thromospondin 4 (THBS4)” value ([1]; Genbank NM_03248.1) was 2.58 Fold and the “Fold: Dysferlin, limb girdle muscular dystrophy 2B (autosomal recessive) (DYSF)” value ([1]; Genbank NM_003494.1, Skeletal Diseases) was 2.16 Fold. The “Fold: Peroxisomal biogenesis factor 3 (PEX3)” value ([1]; Genbank NM_003630.1, Autoimmune Diseases) was 0.43 Fold, the “Fold: Fibroblast growth factor 18 (FGF18)” value ([1]; Genbank NM_003862.1) was 2.75 Fold and the “Fold: Dystrophin (muscular dystrophy, Duchenne and Becker types), dystrophin Dp40 isoform (DMD)” value ([1]; Genbank NM_004019.1, Skeletal Diseases) was 2.76 Fold. For the same compound, the “Fold: Vitelliform macular dystrophy (Best disease, bestrophin) (VMD2)” value ([1]; Genbank NM_004183.1, Eye Diseases) was 0.28 Fold, the “Fold: Smcx homolog, X chromosome (mouse) in nonsyndromic X-linked mental retardation” value ([1]; Genbank NM_004187, Neuromuscular Diseases) was 0.61 Fold and the “Fold: Enhancer of zeste (Drosophila) homolog 2 (EZH2) (USP14)” value ([1]; Genbank NM_004456.1, Cancer) was 0.47 Fold. The “Fold: Peroxisomal biogenesis factor 14 (PEX14) in peroxisome biogenesis disorders” value ([1]; Genbank NM_004565.1, Neuromuscular Diseases) was 2.06 Fold, the “Fold: ATP-binding cassette, sub-family D (ALD), member 2 (ABCD2) in X-linked adrenoleukodystrophy” value ([1]; Genbank NM_005164.1, Neuromuscular Diseases) was 2.71 Fold and the “Fold: B-cell CLLlymphoma 3 (BCL3)” value ([1]; Genbank NM_005178.1, Cancer) was 2.05 Fold. For the same compound, the “Fold: Neuroblastoma, suppression of tumorigenicity 1 (NBL1),” value ([1]; Genbank NM_005380.1, Cancer) was 3.07 Fold, the “Fold: ATP-binding cassette, sub-family B (MDRTAP), member 6 (ABCB6), nuclear gene encoding mitochondrial protein” value ([1]; Genbank NM_005689.1) was 0.46 Fold and the “Fold: N-cym protein” value ([1]; Genbank NM_006316, Cancer) was 2.38 Fold. For the same compound, the “Fold: Translocase of inner mitochondrial membrane 44 (yeast) homolog (TIM44)” value ([1]; Genbank NM_006351.1) was 0.50 Fold, the “Fold: Butyrophilin, subfamily 3, member A3 (BTN3A3)” value ([1]; Genbank NM_006994.2, Autoimmune Diseases) was 2.04 Fold and the “Fold: Keratocan (KERA) involved in cornea plana” value ([1]; Genbank NM_007035.2, Eye Diseases) was 0.50 Fold. The “Fold: Disintegrin-like and metalloprotease (reprolysin type) with thrombospondin type 1 motif (ADAMTS5)” value ([1]; Genbank NM_007038.1) was 0.23 Fold, the “Fold: Angiopoietin-like 2 (ANGPTL2)” value ([1]; Genbank NM_012098.1) was 2.16 Fold and the “Fold: Nasopharyngeal carcinoma susceptibility protein (LZ16)” value ([1]; Genbank NM_013275.1, Cancer) was 0.41 Fold. For the same compound, the “Fold: Trichorhinophalangeal syndrome I gene (TRPS1)” value ([1]; Genbank NM_014112.1, Skeletal Diseases) was 0.36 Fold, the “Fold: Rhabdoid tumor deletion region protein 1 (RTDR1)” value ([1]; Genbank NM_014433.1, Cancer) was 2.20 Fold and the “Fold: Amyotrophic lateral sclerosis 2 (juvenile) chromosome region, candidate 3 (ALS2CR3)” value ([1]; Genbank NM_015049.1, Neuromuscular Diseases) was 0.41 Fold. For the same compound, the “Fold: Chromosome 5 open reading frame 4 (C5ORF4), putative tumor suppressor” value ([1]; Genbank NM_016348.1, Cancer) was 2.76 Fold, the “Fold: Niban protein (NIBAN) (Renal carcinogenesis)” value ([1]; Genbank NM_022083.1, Cancer) was 0.21 Fold and the “Fold: RNA binding motif protein 5, putative tumor suppressor (LUCA15)” value ([1]; Genbank U23946.1, Cancer) was 0.43 Fold. For the same compound, the “Fold: A kinase anchor protein S-AKAP84 mRNA, nuclear gene encoding mitochondrial protein” value ([1]; Genbank U34074.1) was 2.14 Fold, the “Fold: Unknown protein mRNA within the p53 intron 1” value ([1]; Genbank U58658.1, Cancer) was 0.45 Fold and the Survival [2] was “improved survival”. The Survival [3] was “improved survival”, the “PAS stain of renal xenograft tumors” value ([4]; 60 mg/kg/day for 15 days, treated vs untreated tumors) was “increase in general glycoprotein expression and lysosomal staining” and the Tumor growth ([4]; renal cancer model) was “decreased tumor growth”. For the same compound, the “Development of blood vessels inside tumors (anti-CD34 staining)” value ([4]; renal, oral 60 mg/kg/day) was “inhibited the development of blood vessels”, the “Expression of TSP-4 at the RNA and protein levels” value [5] was “inhibit expression” and the “Induction of apoptosis (Annexin-V-Fluos)” value [6] was “same concentration range as 4-HPR”.
